Patent publication US20250313563A1, “GLYCOGEN SYNTHASE KINASE 3 INHIBITORS AND USES THEREOF” (The Broad Institute, Inc., priority 2022, published 2025)
Like-named read-outs stand apart in the source and are kept apart here.

What was measured:
[1] = biological target: GSK3b (GST-full length GSK3b) (Homo sapiens (Human), UniProt P49841); test: GSK3b TR-FRET kinase assay; type: biochemical
Summary of the method: (§1)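 In this time-resolved FRET format, kinase reactions contained 200 nM biotinylated, S645-phosphorylated glycogen synthase 631-650 peptide and either isoform-specific ATP (2 μM GSK3b, 4 μM GSK3α) or 1 mM ATP. They were quenched with EDTA after 100 min at ambient temperature. Inhibition curves gave IC50 values.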

[2] = biological target: GSK3α (GST-full length GSK3α) (Homo sapiens (Human), UniProt P49840); test: GSK3α TR-FRET kinase assay; type: biochemical
Summary of the method: as §1

[3] = 1 nM GSK3b, 2 μM ATP, 30 minute preincubation, Table 16, read-out: GSK3-B TR-FRET BIOCHEMICAL (TR-FRET), IC50
[4] = 1 nM GSK3α, 4 μM ATP, 30 minute preincubation, Table 16, read-out: GSK3-A TR-FRET BIOCHEMICAL (TR-FRET), IC50
[5] = 1 nM GSK3b, 2 μM ATP, 30 minute preincubation, read-out: GSK3-B TR-FRET BIOCHEMICAL (TR-FRET), IC50
[6] = 1 nM GSK3α, 4 μM ATP, 30 minute preincubation, read-out: GSK3-A TR-FRET BIOCHEMICAL (TR-FRET), IC50
[7] = 1 nM GSK3b, 2 μM ATP, 30 minute preincubation, Table 16, read-out: GSK3-B TR-FRET BIOCHEMICAL (TR-FRET)
[8] = 1 nM GSK3α, 4 μM ATP, 30 minute preincubation, Table 16, read-out: GSK3-A TR-FRET BIOCHEMICAL (TR-FRET)
[9] = read-out: GSK3-B (TR-FRET 1 mM ATP), GMean, IC50, 1 mM ATP, geometric mean
[10] = read-out: GSK3-A (TR-FRET 1 mM ATP), GMean, IC50, 1 mM ATP, geometric mean

Chain of GSK3α (GST-full length GSK3α) (P49840 whole entry): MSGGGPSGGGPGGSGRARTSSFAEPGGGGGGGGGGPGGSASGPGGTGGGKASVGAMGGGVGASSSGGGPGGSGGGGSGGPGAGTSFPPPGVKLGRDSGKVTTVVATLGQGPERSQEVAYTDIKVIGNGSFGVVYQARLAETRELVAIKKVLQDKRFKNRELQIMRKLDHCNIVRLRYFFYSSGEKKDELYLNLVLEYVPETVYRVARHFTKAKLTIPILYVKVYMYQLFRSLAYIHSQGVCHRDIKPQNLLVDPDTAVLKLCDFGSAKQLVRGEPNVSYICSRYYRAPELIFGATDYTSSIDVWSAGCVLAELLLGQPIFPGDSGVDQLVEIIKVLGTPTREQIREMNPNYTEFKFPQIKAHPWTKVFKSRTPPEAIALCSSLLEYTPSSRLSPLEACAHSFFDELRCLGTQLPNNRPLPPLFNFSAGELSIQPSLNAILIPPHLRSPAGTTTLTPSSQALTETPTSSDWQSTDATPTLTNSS
Chain of GSK3b (GST-full length GSK3b) (P49841 whole entry, canonical isoform): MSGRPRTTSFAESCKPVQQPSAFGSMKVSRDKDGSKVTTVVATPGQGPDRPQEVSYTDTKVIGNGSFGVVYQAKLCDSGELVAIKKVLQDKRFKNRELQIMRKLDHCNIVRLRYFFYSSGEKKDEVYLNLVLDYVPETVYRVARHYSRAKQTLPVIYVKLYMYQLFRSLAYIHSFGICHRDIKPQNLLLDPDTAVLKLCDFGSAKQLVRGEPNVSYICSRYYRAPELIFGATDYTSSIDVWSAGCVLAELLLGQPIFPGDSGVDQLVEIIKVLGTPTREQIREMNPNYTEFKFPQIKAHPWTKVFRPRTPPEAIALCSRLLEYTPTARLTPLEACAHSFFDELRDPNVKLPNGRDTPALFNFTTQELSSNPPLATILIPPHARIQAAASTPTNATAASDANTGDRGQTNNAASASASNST

SMILES	IC50 [1, 3] [nM]	IC50 [2, 4] [nM]	IC50 [1, 7] [nM]	IC50 [2, 8] [nM]	further results
Cc1[nH]nc2c1C1(CCCCC1)C1=C(CC(C)(C)CC1=O)N2 [Compound 877288]	> 5000	> 5000			
CCC1(CC)C2=C(CC(C)(C)CC2=O)Nc2n[nH]c(C3CC3)c21 [Compound 877294]	> 5000	> 5000			
Cc1[nH]nc2c1C1(CC3(CCC3)C1)C1=C(CC(C)(C)CC1=O)N2 [Compound 877295]					IC50 [1, 5]: > 5000 nM; IC50 [2, 6]: > 5000 nM
CCC1(c2cccc(N3CCCCC3)c2)C2=C(CC(C)(C)CC2=O)Nc2n[nH]c(C)c21 (stereo not shown) [Compound 877311]					IC50 ([1]; 1 nM GSK3b, 2 μM ATP, 30 minute preincubation, geometric mean, read-out: GSK3-B TR-FRET BIOCHEMICAL (TR-FRET), GMean, IC50): ≤ 100 nM; IC50 ([2]; 1 nM GSK3α, 4 μM ATP, 30 minute preincubation, geometric mean, read-out: GSK3-A TR-FRET BIOCHEMICAL (TR-FRET), GMean, IC50): ≤ 100 nM
CC1(C)CC(=O)C2=C(C1)Nc1n[nH]cc1[C@]21CCOC1 [Compound 877313]			100 to 1000	100 to 1000	
CC1(C)CC(=O)C2=C(C1)Nc1n[nH]cc1[C@@]21CCOC1 [Compound 877314]	1000 to 5000	100 to 1000			
CC1(C)CC(=O)C2=C(C1)Nc1n[nH]cc1C21CCC(c2ccccc2)CC1 (stereo not shown) [Compound 877320]			≤ 100	≤ 100	
CC1(C)CC(=O)C2=C(C1)Nc1n[nH]cc1C21CCN(c2ccncc2)CC1 [Compound 880765]	> 5000	> 5000			
CC1(C)CC(=O)C2=C(C1)Nc1n[nH]cc1C21CCN(S(C)(=O)=O)CC1 [Compound 880776]			≤ 100	≤ 100	
CC1(C)CC(=O)C2=C(Nc3n[nH]cc3C23CCOCC3)[C@H]1F [Compound 883833]			1000 to 5000	100 to 1000	
CC1(C)CC(=O)C2=C(Nc3n[nH]cc3C23CCOCC3)[C@@H]1F [Compound 883834]			1000 to 5000	100 to 1000	
CC1(C)CC2=C(C(=O)[C@@H]1F)C1(CCOCC1)c1c[nH]nc1N2 [Compound 883835]			100 to 1000	100 to 1000	
CC1(C)CC2=C(C(=O)[C@H]1F)C1(CCOCC1)c1c[nH]nc1N2 [Compound 883836]			1000 to 5000	100 to 1000	
C[C@H]1CC[C@]2(C1)C1=C(CC(C)(C)CC1=O)Nc1n[nH]cc12 [Compound 883840]			100 to 1000	100 to 1000	
C[C@@H]1CC[C@@]2(C1)C1=C(CC(C)(C)CC1=O)Nc1n[nH]cc12 [Compound 883841]			100 to 1000	100 to 1000	
CC1(C)CC(=O)C2=C(C1)Nc1n[nH]cc1[C@@]21CCCC(C)(C)C1 [Compound 883846]			1000 to 5000	100 to 1000	
CCC1(c2cccc(-c3ccnc(OC)c3)c2)C2=C(CC(C)(C)CC2=O)Nc2n[nH]cc21 (stereo not shown) [Compound 883850]	100 to 1000	≤ 100			
CCC1(c2cccc(-c3c(C)nn(C)c3C)c2)C2=C(CC(C)(C)CC2=O)Nc2n[nH]cc21 (stereo not shown) [Compound 883851]	≤ 100	≤ 100			
CCC1(c2ccccc2)C2=C(CCN(C)C2=O)Nc2n[nH]cc21 (stereo not shown) [Compound 883867]					IC50 [1, 5]: > 5000 nM; IC50 [2, 6]: > 5000 nM

Now from value to molecule, other results behind:

IC50 [1, 3] [nM]	IC50 [2, 4] [nM]	IC50 [1, 7] [nM]	IC50 [2, 8] [nM]	SMILES	further results
		100 to 1000	≤ 100	CC1(C)CC(=O)C2=C(C1)Nc1n[nH]cc1C21CC(C)(C)C1 [Compound 883864]	
		100 to 1000	≤ 100	Cc1[nH]nc2c1C1(CCCCC1)C1=C(CC(C)(C)CC1=O)N2 [Compound 883865]	
≤ 100	≤ 100			CCC1(c2cccc(C)c2)C2=C(CC(C)(C)CC2=O)Nc2n[nH]c(C(F)(F)F)c21 (stereo not shown) [Compound 883873]	IC50 [1, 9]: 100 to 1000 nM; IC50 [2, 10]: ≤ 100 nM
≤ 100	≤ 100			CCC1(c2cccc(N3CCCC3)c2)C2=C(CC(C)(C)CC2=O)Nc2n[nH]c(C)c21 (stereo not shown) [Compound 883874]	IC50 [1, 9]: 100 to 1000 nM; IC50 [2, 10]: ≤ 100 nM
1000 to 5000	100 to 1000			CC[C@]1(c2cccc(N3CCCC3)c2)C2=C(CC(C)(C)CC2=O)Nc2n[nH]c(C)c21 [Compound 883875]	
		100 to 1000	100 to 1000	CC1(C)CC(=O)C2=C(C1)Nc1n[nH]cc1C21CCN(CC(F)F)CC1 [Compound 883962]	
		100 to 1000	≤ 100	CC1(C)CC(=O)C2=C(C1)Nc1n[nH]cc1C21CCC(F)(F)CC1 [Compound 883972]	
		100 to 1000	≤ 100	CC1(C)CC(=O)C2=C(C1)Nc1n[nH]cc1C21CCSC1 (stereo not shown) [Compound 883973]	
